Results: patent publication US9884122B2, “Small molecule drug conjugates” (Philochem AG, priority 2014, dated 2018)
Where two headings read alike, the source gives them in different places.

Legend:
[1] = system: CAIX expressing SKRC52 cells; experiment: Ligand binding analysis by flow cytometry, SKRC52; type: cell-based, human; conditions: 30 nM dye conjugate, 1 h at 0° C., washed
Description: Cells were detached from culture plates using a 50 mM EDTA solution in phosphate buffered saline (PBS) pH 7.4, counted and suspended to a final concentration of 1.5×10^6 cells mL^−1 in a 1% v/v solution of FCS in PBS pH 7.4. Aliquots of 3×10^5 cells (200 μL) were spun down and resuspended in solutions of IRDye750 (Licor) labeled ligands (30 nM) in a 1% v/v solution of FCS in PBS pH 7.4 (200 μL) and incubated on ice for 1 h. Cells were washed once with 200 μL 1% v/v solution of FCS in PBS pH 7.4 (200 μL), spun down, resuspended in 1% v/v solution of FCS in PBS pH 7.4 (300 μL) and analyzed on a FACS Canto flow cytometer (BD Bioscience). FlowJo Version 8.7 (Treestar) was used for data analysis and visualization. Results were as follows: • (1) Flow cytometry analysis of binding of ligand-IRDye750 conjugates 1c-6c (FIG. 1) to CAIX expressing SKRC52 cells.
Flow cytometry was performed as described above with monovalent and bivalent near infrared dye conjugates B3 and B4 and negative control conjugates lacking the ligand on CAIX-positive SKRC52 cells and CAIX-negative HEK cells^5.

[2] = system: CAIX positive SKRC52 cells; experiment: Ligand internalization analysis by flow cytometry, SKRC52; type: cell-based, human
Description: SKRC52 or A549 cells were seeded in 6-well plates in their appropriate culture medium (2 mL) at a density of 1.5×10^5 cells per well and allowed to grow for 24 h under culture conditions. The medium was replaced with medium containing IRDye750 (Licor) labeled probes 1c or 6c (2 mL, 30 nM) and plates incubated for 1, 2 or 4 h under standard culture conditions. After washing with PBS pH 7.4 (2×2 mL), Trypsin-EDTA 0.05% (500 μL, Invitrogen) was added and plates incubated under standard culture conditions for 15 min Medium (500 μL) was added, cells pelleted and resuspended in PBS pH 7.4 containing 1% v/v FCS (150 μL). After incubating for 15 min on ice, cells were labeled for 30 min on ice with rabbit anti human CAIX IgG (1:100, Santa Cruz) in PBS pH 7.4 containing 1% FCS (150 μL), washed with PBS pH 7.4 containing 1% FCS (2×150 μL) and labeled for 30 min on ice with goat anti rabbit IgG Alexa488 conjugate (1:100, Invitrogen) in PBS pH 7.4 containing 1% FCS (150 μL). After washing with PBS pH 7.4 containing 1% FCS (2×150 μL), cells were pelleted and resuspended in PBS pH 7.4 containing 1% v/v FCS and propidium iodide (300 μL, 1 μg mL^−1, Invitrogen) and analyzed on a FACS Canto flow cytometer (BD Bioscience). FlowJo Version 8.7 (Treestar) was used for data analysis and visualization. To inhibit uptake mechanisms, cells were pre-incubated with medium containing 0.2% NaN3 for 1 h and the NaN3 concentration maintained throughout the entire experiment. Alternatively, all steps were performed at 0° C. or an excess of AAZ (100 μM) was added to the culture medium.

[3] = system: subcutaneous SKRC52 tumors
[4] = system: subcutaneous SKRC52 tumors; conditions: mouse, in vivo
[5] = in vivo; conditions: balb/c nu/nu, mouse, iv
[6] = target: T1, CAIX (Homo sapiens, UniProt Q16790); experiment: Affinity determination of CAIX ligands by fluorescence polarization; type: binding; conditions: PBS pH 7.4, 22° C., 1 h; read-out: Kd by fluorescence polarization in solution
T1 construct: His6; made in house
Description: Fluorescein labelled ligands (5 nM diluted with PBS from DMSO stocks, final DMSO content adjusted to 0.001%) were incubated at 22° C. for 1 h in a black 384-well plate (Greiner, non-binding) in PBS (pH 7.4) with increasing concentrations of CAIX to a final volume of 60 μl. The fluorescence anisotropy was measured on a Spectra Max Paradigm multimode plate reader (Molecular Devices). Experiments were performed in triplicate and the mean anisotropy values fitted to the following equation using KaleidaGraph 4.1.3 (Synergy Software),
[formula] where A is the anisotropy, [P]0 the total protein concentration, [L]0 the total concentration of the fluorescently labelled ligand and KD the dissociation constant.

Kd [6] [nM]	Compound	binding to SKRC52 cells (fluorescence shift) [1]	internalization with extended incubation time ([2]; 30 nM at 37° C., 2 h and 4 h versus 1 h)	internalization under conditions inhibiting uptake ([2]; 30 nM, 0.2% w/v NaN3, same with excess AAZ or at 0° C.)	internalization: fluorescence after trypsin detachment ([2]; 30 nM, 1 h at 37° C.)	tumor visibility by near infrared imaging ([3]; 1 nmol intravenous, 1 h)	tumor targeting by near infrared imaging ([3]; 3 nmol intravenous, 1-12 h)	tumor to heart ratio [4]	tumor-to-blood ratio [4]	tumor-to-organ ratio, kidneys [4]	tumor-to-organ ratio, liver [4]	tumor-to-blood ratio ([4]; iv)	half-life [5] [h]
	CC1(C)C(/C=C/C2=C(c3ccc(CCCCC(=O)NCCOCCOCCNC(=O)CCC(=O)Nc4nnc(S(N)(=O)=O)s4)cc3)C(=C/C=C3/N(CCCCS(=O)(=O)O)c4ccc(S(=O)(=O)[O-])cc4C3(C)C)/CCC2)=[N+](CCCCS(=O)(=O)O)c2ccc(S(=O)(=O)O)cc21 [Compound 1c, N1-(2-(2-(2-aminoethoxy)ethoxy)ethyl)-N4-(5-sulfamoyl-1,3,4-thiadiazol-2-yl)succinamide IRDye750 conjugate]	binds strongly enough to result in a strong fluorescence shift after washing of cells	did not see a markedly increased signal	fluorescent signal was shifted to baseline	higher fluorescence intensity than cells treated with non-binding conjugate 6c or untreated cells	the tumor could clearly be seen against background	gave good tumor to background contrast	27.6:1	79.2:1	1.4:1	0.2:1	13.8:1	~1
0.2 ± 0.1	CC(CCC(=O)N[C@@H](CC(=O)N[C@@H](CC(=O)N[C@@H](CCCCn1cc(CCCC(=O)Nc2nnc(S(N)(=O)=O)s2)nn1)C(=O)NCCOCCOCCN)C(=O)O)C(=O)O)(c1ccc(O)cc1)c1ccc(O)cc1 [Compound C5a, N-[4,4-bis(4-hydroxyphenyl)pentanoyl]-β-aspartyl-β-aspartyl-N-{2-[2-(2-aminoethoxy)ethoxy]ethyl}-6-(4-{4-oxo-4-[(5-sulfamoyl-1,3,4-thiadiazol-2-yl)amino]butyl}-1H-1,2,3-triazol-1-yl)-L-norleucinamide]												
